# According to PMC7216583 (Parasites & Vectors, 2020):
# Counter-ions that a name gives are not always drawn. Like-named read-outs stand apart in the source and are kept apart here.
# How the values were obtained:
# HSP90 = conditions: ref library vendor description, cited from earlier work
# [1] = system: Toxoplasma gondii RH-2F tachyzoites; experiment: microbe, parasite or virus in culture; conditions: 72 h; for inhibition at 5 µM: read-out: Parasite inhibition (%) Mean ± SD
# JAK2 = system: JAK2; set-up: method as in S-inhibitor catalog; conditions: vendor brief description; ref S-inhibitor catalog; cited from earlier work
# in vitro = conditions: human; for viability at 72 h, 5 µM: Host viability (%) Mean ± SD; for viability at 72 h: Host viability (%) mean
# [2] = system: Toxoplasma gondii RH-2F tachyzoites; conditions: for effect on T. gondii growth in the screen: 5 μM, 72 h
# PDK-1 = system: PDK-1; set-up: method as in library vendor description; conditions: ref library vendor description, cited from earlier work
# mTOR [3] = system: mTOR; set-up: method as in S-inhibitor catalog; conditions: vendor brief description; ref S-inhibitor catalog; cited from earlier work
# PDGFRβ [4] = system: PDGFRβ; set-up: method as in S-inhibitor; conditions: ref S-inhibitor; cited from earlier work
# VEGFR2 = system: VEGFR2; set-up: method as in library vendor description; conditions: ref library vendor description; cited from earlier work
# Flt4 = system: Flt4; set-up: method as in library vendor description; conditions: ref library vendor description; cited from earlier work
# Flt1 = system: Flt1; set-up: method as in library vendor description; conditions: ref library vendor description; cited from earlier work
# mTOR [5] = system: mTOR; set-up: method as in library vendor description; conditions: ref library vendor description; cited from earlier work
# VEGFR3 = system: VEGFR3; set-up: method as in library vendor description; conditions: ref library vendor description; cited from earlier work
# VEGFR-2 = system: VEGFR-2; set-up: method as in vendor brief description; conditions: ref vendor brief description; cited from earlier work
# HDAC = system: HDAC; set-up: method as in S-inhibitor; conditions: ref S-inhibitor; cited from earlier work
# [6] = system: chymotrypsin-like proteolytic (β5) site of the 20S proteasome; set-up: method as in S-inhibitor; conditions: ref S-inhibitor; cited from earlier work
# PDGFRβ [7] = system: PDGFRβ; set-up: method as in library vendor description; conditions: ref library vendor description; cited from earlier work
# S6K1 = system: S6K1; set-up: method as in S-inhibitor; conditions: ref S-inhibitor; cited from earlier work
# c-Kit = system: c-Kit; set-up: method as in library vendor description; conditions: ref library vendor description; cited from earlier work
# VEGFR1 = system: VEGFR1; set-up: method as in library vendor description; conditions: ref library vendor description; cited from earlier work
# Ret = system: Ret; set-up: method as in library vendor description; conditions: ref library vendor description; cited from earlier work
# Aurora B = system: Aurora B; set-up: method as in S-inhibitor catalog; conditions: vendor brief description; ref S-inhibitor catalog; cited from earlier work
# [8] = system: human foreskin fibroblasts (HFFs); conditions: preliminary screen of compound library; mean
# CCR5 = conditions: ref S-inhibitor, cited from earlier work
# [9] = read-out: Parasite inhibition (%) mean, preliminary screen, mean
# [10] = read-out: Parasite inhibition (%) mean, preliminary screen of compound library, mean
# [11] = preliminary screen of compound library, mean
compound,measurement,setting,value
CO[C@H]1/C=C\C=C(\C)C(=O)NC2=CC(=O)C(NCCN(C)C)=C(C[C@@H](C)C[C@H](OC)[C@H](O)[C@@H](C)/C=C(\C)[C@@H]1OC(N)=O)C2=O [17-DMAG HCl (Alvespimycin)],IC50,HSP90; read-out: IC50 HSP90,62 nM
same,inhibition of growth at 5 µM,[1]; [9],4.3%
Cc1cc(Nc2nc(N[C@@H](C)c3ccc(F)cc3)c(C#N)cc2F)[nH]n1 [AZ 960],inhibition of growth at 5 µM,[1]; [9],-2.1%
same,IC50,JAK2,< 3 nM
same,Ki,JAK2,0.45 nM
"COC(=O)N[C@H](C(=O)N[C@@H](Cc1ccccc1)[C@@H](O)CN(Cc1ccc(-c2ccccn2)cc1)NC(=O)[C@@H](NC(=O)OC)C(C)(C)C)C(C)(C)C [Atazanavir, reference compound]","viability at 72 h, 5 µM",in vitro,90.7 ± 2.8%
same,effect on T. gondii growth in the screen,[2],significantly inhibited T. gondii growth
same,inhibition at 5 µM,[1],93.6 ± 2.1%
COc1c(C)cnc(Cn2cnc3c(Cl)nc(N)nc32)c1C [BIIB021],EC50,HSP90; read-out: EC50 HSP90,[…]
same,inhibition of growth at 5 µM,[1]; [9],3.5%
O=C(Nc1cccc(Nc2ncc(Br)c(NCCc3cnc[nH]3)n2)c1)N1CCCC1 [BX-912],IC50,PDK-1; read-out: IC50 PDK-1,12 nM
same,inhibition of growth at 5 µM,[1]; [9],1.4%
CN1CCN(c2cccc(Nc3nc4c(-c5ccc(S(C)(=O)=O)cc5)cccn4n3)c2)CC1 [CEP33779],inhibition of growth at 5 µM,[1]; [10],7.8%
same,IC50,JAK2,1.8 nM
CS(=O)(=O)N1CCc2c(-c3cnc(N)nc3)nc(N3CCOCC3)nc21 [CH5132799],IC50,mTOR [3],1600 nM
same,inhibition of growth at 5 µM,[1]; [10],48.9%
COCCOc1ccc2c(c1)ncn2-c1ccc2cccc(N3CCC(N)CC3)c2n1 [CP 673451],inhibition of growth at 5 µM,[1]; [9],-13.8%
same,IC50,PDGFRβ [4],1 nM
COc1cc2c(Oc3ccc4[nH]c(C)cc4c3F)ncnc2cc1OCCCN1CCCC1 [Cediranib (AZD2171)],IC50,VEGFR2,0.5 nM
same,IC50,Flt4,≤ 3 nM
same,IC50,Flt1,5 nM
same,inhibition of growth at 5 µM,[1]; [9],0.4%
CO[C@H]1C[C@H]2CC[C@@H](C)[C@@](O)(O2)C(=O)C(=O)N2CCCC[C@H]2C(=O)O[C@H]([C@H](C)C[C@@H]2CC[C@H](OP(C)(C)=O)[C@H](OC)C2)CC(=O)[C@H](C)/C=C(\C)[C@@H](O)[C@@H](OC)C(=O)[C@H](C)C[C@H](C)/C=C/C=C/C=C/1C [Deforolimus (Ridaforolimus)],IC50,mTOR [5],0.2 nM
same,inhibition of growth at 5 µM,[1]; [9],36.8%
COc1cc2nccc(Oc3ccc(NC(=O)NC4CC4)c(Cl)c3)c2cc1C(N)=O [E7080 (Lenvatinib)],IC50,VEGFR2,4 nM
same,viability at 72 h,in vitro,52.1%
same,IC50,VEGFR3,5.2 nM
same,inhibition of growth at 5 µM,[1]; [9],84.1%
Cc1cc(Nc2cc(N3CCN(C)CC3)nc(/C=C/c3ccccc3)n2)n[nH]1 [ENMD-2076],IC50,Flt4,15.9 nM
same,viability at 72 h,in vitro,66.6%
same,inhibition of growth at 5 µM,[1]; [9],74.7%
Cc1c(CN2CCN(C(=O)[C@H](C)O)CC2)sc2c(N3CCOCC3)nc(-c3cnc(N)nc3)nc12 [GDC-0980 (RG7422)],Ki,mTOR [3],17 nM
same,inhibition of growth at 5 µM,[1]; [10],33.7%
CN1CCN(C2CCN(C(=O)Nc3cc(Oc4ccc(NC(=O)C5(C(=O)Nc6ccc(F)cc6)CC5)c(F)c4)ccn3)CC2)CC1 [Golvatinib (E7050)],viability at 72 h,in vitro,78.3%
same,IC50,VEGFR-2,16 nM
same,inhibition of growth at 5 µM,[1]; [10],76.8%
CCN(CC)Cc1ccc2cc(COC(=O)Nc3ccc(C(=O)NO)cc3)ccc2c1 [ITF2357 (Givinostat)],IC50,HDAC,7.5 to 16 nM
same,inhibition of growth at 5 µM,[1]; [9],62.2%
Cn1cc(/C=C/C(=O)c2cccc(F)c2)cc1/C=C/C(=O)NO [MC1568],IC50,HDAC,220 nM
same,inhibition of growth at 5 µM,[1]; [9],35.4%
CC(C)C[C@H](NC(=O)CNC(=O)c1cc(Cl)ccc1Cl)B(O)O [MLN2238],IC50,[6],3.4 nM
same,Ki,[6],0.93 nM
same,inhibition of growth at 5 µM,[1]; [9],13.3%
Cc1ccc(NC(=O)c2ccc(CN3CCN(C)CC3)cc2)cc1Nc1nc(-c2cccnc2)cs1 [Masitinib (AB1010)],IC50,PDGFRβ [7],[…]
same,inhibition of growth at 5 µM,[1]; [9],10.5%
NCC(=O)Nc1ccc(-n2nc(C(F)(F)F)cc2-c2ccc3c(ccc4ccccc43)c2)cc1 [OSU-03012 (AR-12)],IC50,"PDK-1; recombinant PDK-1, read-out: IC50 recombinant PDK-1",5000 nM
same,inhibition of growth at 5 µM,[1]; [9],5.4%
CCc1cncnc1N1CCN(Cc2nc3cc(C(F)(F)F)ccc3[nH]2)CC1 [PF-4708671],IC50,S6K1,160 nM
same,Ki,S6K1,20 nM
same,inhibition of growth at 5 µM,[1]; [9],60.6%
"Cc1[nH]c(/C=C2\C(=O)Nc3ccc(S(=O)(=O)Cc4c(Cl)cccc4Cl)cc32)c(C)c1C(=O)N1CCC[C@@H]1CN1CCCC1 [PHA-665752, reference compound]","viability at 72 h, 5 µM",in vitro,80.5 ± 1.3%
same,viability at 72 h,in vitro,80.5%
same,effect on T. gondii growth in the screen,[2],significantly inhibited T. gondii growth
same,inhibition at 5 µM,[1],92.3 ± 3.1%
CNC(=O)c1cc(Oc2ccc(NC(=O)Nc3ccc(Cl)c(C(F)(F)F)c3)c(F)c2)ccn1 [Regorafenib (BAY 73-4506)],IC50,c-Kit,7 nM
same,IC50,Ret,1.5 nM
same,viability at 72 h,in vitro,68.2%
same,inhibition of growth at 5 µM,[1]; [9],76.7%
CCCCc1nc2cc(/C=C/C(=O)NO)ccc2n1CCN(CC)CC [SB939 (Pracinostat)],IC50,HDAC,40 to 140 nM
same,inhibition of growth at 5 µM,[1]; [9],34.6%
CCS(=O)(=O)c1cccc(-c2cc(C(=O)NC3CCN(C)CC3)c(C)c3[nH]c4ncc(C)cc4c23)c1 [TAK-901],IC50,Aurora B,15 nM
same,viability at 72 h,in vitro,52.7%
same,inhibition of growth at 5 µM,[1]; [10],77.8%
CO[C@H]1C[C@H]2CC[C@@H](C)[C@@](O)(O2)C(=O)C(=O)N2CCCC[C@H]2C(=O)O[C@H]([C@H](C)C[C@@H]2CC[C@H](OC(=O)C(C)(CO)CO)[C@H](OC)C2)CC(=O)[C@H](C)/C=C(\C)[C@@H](O)[C@@H](OC)C(=O)[C@H](C)C[C@H](C)/C=C/C=C/C=C/1C [Temsirolimus (Torisel)],IC50,mTOR [5],1760 nM
same,inhibition of growth at 5 µM,[1]; [9],22.4%
"N#CC(=C(/N)Sc1ccccc1N)/C(C#N)=C(/N)Sc1ccccc1N [U0126, reference compound]",effect on T. gondii growth in the screen,[2],no effect on T. gondii growth
CN[C@H](CC(C)C)C(=O)N[C@H]1C(=O)N[C@@H](CC(N)=O)C(=O)N[C@H]2C(=O)N[C@H]3C(=O)N[C@@H](C(=O)N[C@H](C(=O)O)c4cc(O)cc(O)c4-c4cc3ccc4O)[C@H](O)c3ccc(c(Cl)c3)Oc3cc2cc(c3O[C@H]2O[C@H](CO)[C@@H](O)[C@H](O)[C@H]2O[C@H]2C[C@@](C)(N)[C@H](O)[C@H](C)O2)Oc2ccc(cc2Cl)[C@H]1O.Cl [Vancomycin HCl (Vancocin)],Parasite inhibition (%) mean,[2],0.8%
Clc1ccc(Nc2nnc(Cc3ccncc3)c3ccccc23)cc1 [Vatalanib 2HCl (PTK787)],IC50,c-Kit,730 nM
same,inhibition of growth at 5 µM,[1]; [9],-6.6%
c1cncc(CN2CCC(n3ncc4c(N5CCOCC5)nc(-c5ccc6[nH]ccc6c5)nc43)CC2)c1 [WAY-600],IC50,mTOR [3],9 nM
same,inhibition of growth at 5 µM,[1]; [10],35.5%
COC(=O)Nc1ccc(-c2nc(N3CCOCC3)c3cnn(C4CCN(C(=O)OC)CC4)c3n2)cc1 [WYE-354],IC50,mTOR [5],5 nM
same,inhibition of growth at 5 µM,[1]; [9],43.5%
COC(=O)Nc1ccc(-c2nc(N3CCOCC3)c3cnn(C4CCN(Cc5cccnc5)CC4)c3n2)cc1 [WYE-687],IC50,mTOR [3],7 nM
same,inhibition of growth at 5 µM,[1]; [10],28.7%
CNC(=O)Nc1ccc(-c2nc(N3CC4CCC(C3)O4)c3cnn(C4CCC5(CC4)OCCO5)c3n2)cc1 [WYE-125132],IC50,mTOR [3],0.19 nM
same,inhibition of growth at 5 µM,[1]; [10],44.4%
"Cc1cc(F)c(Nc2ncnc3cc(OCc4ccccc4)ccc23)cc1O [ZM 323881 HCl, reference compound]","viability at 72 h, 5 µM",in vitro,85.5 ± 5.4%
same,viability at 72 h,in vitro,85.5%
same,IC50,VEGFR-2,< 2 nM
same,inhibition at 5 µM,[1],79.9 ± 1.4%
"Cc1cc(C)c(/C=C2\C(=O)Nc3ccccc32)[nH]1 [semaxanib, reference compound]",effect on T. gondii growth in the screen,[2],no effect on T. gondii growth
AT101,Host viability (%) mean,[8],68.8%
same,Parasite inhibition (%) mean,[2],70.4%
Biapenem,Parasite inhibition (%) mean,[2]; [11],5.8%
MLN9708,IC50,[6],3.4 nM
same,Ki,[6],0.93 nM
same,Parasite inhibition (%) mean,"[2]; preliminary screen, mean",17.5%
Maraviroc,IC50,"CCR5; read-out: IC50, CCR5, MIP-1α, MIP-1α",3.3 nM
same,IC50,"CCR5; read-out: IC50, CCR5, MIP-1β, MIP-1β",7.2 nM
same,IC50,"CCR5; read-out: IC50, CCR5, RANTES, RANTES",5.2 nM
Ulipristal,Parasite inhibition (%) mean,[2]; [11],-0.7%
